Laboratory results as given in ChEMBL document CHEMBL1255421, “In vitro fungicidal activities of echinocandins against Candida metapsilosis, C. orthopsilosis, and C. parapsilosis evaluated by time-kill studies” (2010).
≈ marks a conversion by molar mass, not a printed value. Calls of active or inactive are those of the source. The rule behind the calls is not given here. Numbered stars: 1 amine (or outer) side, 2 acyl side, 3 side chain; on linkers, the order of the positions; unused ones are H or OH. Bridge positions count the residues as written; N and C are the ends. Square brackets hold non-standard residues; d marks the D form. Peptide text beside a SMILES is read from it. * marks the point of attachment. hTyr(3S-OH,4S-OH,3'-OSO3H) = N[C@H](C(=O)O)[C@H](O)[C@@H](O)c1ccc(O)c(OS(=O)(=O)O)c1; pTerphenylCO(4''-OnC5H11) = CCCCCOc1ccc(-c2ccc(-c3ccc(C(=O)*)cc3)cc2)cc1; Orn(4R-OH,5R-OH) = O=C([C@H](C[C@@H](O)[C@@H](O)N[*:3])N[*:1])[*:2]; hTyr(3S-OH,4S-OH) = N[C@H](C(=O)O)[C@H](O)[C@@H](O)c1ccc(O)cc1; Pro(3S-OH,4S-Me) = C[C@H]1CN[C@H](C(=O)O)[C@H]1O; X1 = CCCCCOc1ccc(-c2cc(-c3ccc(C(=O)*)cc3)no2)cc1; Gln(3R-OH) = NC(=O)C[C@@H](O)[C@H](N)C(=O)O; Hyp = O=C(O)[C@@H]1C[C@@H](O)CN1

How the values were obtained:
Candida orthopsilosis [1] = assay: Antifungal activity against Candida orthopsilosis clinical isolate bloodstream form assessed as time required for 99.9% reduction in fungal growth at 0.25 mg/L by time-kill assay; assay type: functional
Candida orthopsilosis [2] = assay: Antifungal activity against Candida orthopsilosis clinical isolate bloodstream form assessed as time required for 99.9% reduction in fungal growth at 4 mg/L by time-kill assay; assay type: functional
Candida metapsilosis [3] = assay: Antifungal activity against Candida metapsilosis clinical isolate bloodstream form assessed as time required for 50% reduction in fungal growth at 16 mg/L by time-kill assay; assay type: functional
Candida metapsilosis [4] = assay: Antifungal activity against Candida metapsilosis clinical isolate bloodstream form assessed as time required for 50% reduction in fungal growth at 32 mg/L by time-kill assay; assay type: functional
Candida metapsilosis [5] = assay: Antifungal activity against Candida metapsilosis clinical isolate bloodstream form assessed as time required for 90% reduction in fungal growth at 0.25 mg/L by time-kill assay; assay type: functional
Candida metapsilosis [6] = assay: Antifungal activity against Candida metapsilosis clinical isolate bloodstream form assessed as time required for 90% reduction in fungal growth at 1 mg/L by time-kill assay; assay type: functional
Candida metapsilosis [7] = assay: Antifungal activity against Candida metapsilosis clinical isolate bloodstream form assessed as time required for 90% reduction in fungal growth at 32 mg/L by time-kill assay; assay type: functional
Candida metapsilosis [8] = assay: Antifungal activity against Candida metapsilosis clinical isolate bloodstream form assessed as time required for 99% reduction in fungal growth at 0.25 mg/L by time-kill assay; assay type: functional
Candida metapsilosis [9] = assay: Antifungal activity against Candida metapsilosis clinical isolate bloodstream form assessed as time required for 99% reduction in fungal growth at 4 mg/L by time-kill assay; assay type: functional
Candida metapsilosis [10] = assay: Antifungal activity against Candida metapsilosis clinical isolate bloodstream form assessed as time required for 99.9% reduction in fungal growth at 32 mg/L by time-kill assay; assay type: functional
Candida parapsilosis [11] = assay: Antifungal activity against Candida parapsilosis clinical isolate bloodstream form assessed as time required for 50% reduction in fungal growth at 0.25 mg/L by time-kill assay; assay type: functional
Candida parapsilosis [12] = assay: Antifungal activity against Candida parapsilosis clinical isolate bloodstream form assessed as time required for 50% reduction in fungal growth at 32 mg/L by time-kill assay; assay type: functional
Candida parapsilosis [13] = assay: Antifungal activity against Candida parapsilosis clinical isolate bloodstream form assessed as time required for 90% reduction in fungal growth at 0.25 mg/L by time-kill assay; assay type: functional
Candida parapsilosis [14] = assay: Antifungal activity against Candida parapsilosis clinical isolate bloodstream form assessed as time required for 90% reduction in fungal growth at 1 mg/L by time-kill assay; assay type: functional
Candida parapsilosis [15] = assay: Antifungal activity against Candida parapsilosis clinical isolate bloodstream form assessed as time required for 99% reduction in fungal growth at 0.25 mg/L by time-kill assay; assay type: functional
Candida parapsilosis [16] = assay: Antifungal activity against Candida parapsilosis clinical isolate bloodstream form assessed as time required for 99% reduction in fungal growth at 1 mg/L by time-kill assay; assay type: functional
Candida parapsilosis [17] = assay: Antifungal activity against Candida parapsilosis clinical isolate bloodstream form assessed as time required for 99% reduction in fungal growth at 4 mg/L by time-kill assay; assay type: functional
Candida parapsilosis [18] = assay: Antifungal activity against Candida parapsilosis clinical isolate bloodstream form assessed as time required for 99% reduction in fungal growth at 16 mg/L by time-kill assay; assay type: functional
Candida parapsilosis [19] = assay: Antifungal activity against Candida parapsilosis clinical isolate bloodstream form assessed as time required for 99% reduction in fungal growth at 32 mg/L by time-kill assay; assay type: functional
Candida parapsilosis [20] = assay: Antifungal activity against Candida parapsilosis clinical isolate bloodstream form assessed as time required for 99.9% reduction in fungal growth at 32 mg/L by time-kill assay; assay type: functional
Candida metapsilosis [21] = assay: Antifungal activity against Candida metapsilosis clinical isolate bloodstream form assessed as time required for 99.9% reduction in fungal growth at 1 mg/L by time-kill assay; assay type: functional
Candida orthopsilosis [22] = assay: Fungicidal activity against Candida orthopsilosis isolate CP-150 bloodstream form by CLSI method; assay type: functional; details: Lodderomyces orthopsilosis
Candida orthopsilosis [23] = assay: Fungicidal activity against Candida orthopsilosis isolate CP-151 bloodstream form by CLSI method; assay type: functional; details: Lodderomyces orthopsilosis
Candida metapsilosis [24] = assay: Fungicidal activity against Candida metapsilosis isolate CP-133 bloodstream form by CLSI method; assay type: functional; details: Lodderomyces metapsilosis
Candida metapsilosis [25] = assay: Fungicidal activity against Candida metapsilosis isolate ATC193 bloodstream form by CLSI method; assay type: functional; details: Lodderomyces metapsilosis, isolate ATC-193
Candida parapsilosis [26] = assay: Fungicidal activity against Candida parapsilosis isolate CP-302 bloodstream form by CLSI method; assay type: functional; details: Lodderomyces parapsilosis
Candida parapsilosis [27] = assay: Antifungal activity against Candida parapsilosis clinical isolate bloodstream form assessed as fungal count at 1 mg/L measured at 6 hrs by time-kill assay; assay type: functional
Candida parapsilosis [28] = assay: Antifungal activity against Candida parapsilosis clinical isolate bloodstream form assessed as inhibition of fungal regrowth at 0.03 to 32 mg/L after 6 hrs by time-kill assay; assay type: functional, organism-based
Candida metapsilosis [29] = assay: Antifungal activity against Candida metapsilosis clinical isolate bloodstream form assessed as induction of fungal killing rate at 0.03 to 32 mg/L measured at 6 hrs by time-kill assay; assay type: functional, organism-based
Candida orthopsilosis [30] = assay: Antifungal activity against Candida orthopsilosis clinical isolate bloodstream form assessed as mild induction of fungal death at 0.03 to 32 mg/L after 6 hrs by time-kill assay; assay type: functional, organism-based
Candida orthopsilosis [31] = assay: Antifungal activity against Candida orthopsilosis clinical isolate bloodstream form assessed as induction of maximal fungal death at 16 mg/L after 48 hrs by time-kill assay; assay type: functional, organism-based
Candida orthopsilosis [32] = assay: Antifungal activity against Candida orthopsilosis clinical isolate bloodstream form assessed as time required for 50% reduction in fungal growth at 1 mg/L by time-kill assay; assay type: functional
Candida orthopsilosis [33] = assay: Antifungal activity against Candida orthopsilosis clinical isolate bloodstream form assessed as time required for 50% reduction in fungal growth at 32 mg/L by time-kill assay; assay type: functional
Candida orthopsilosis [34] = assay: Antifungal activity against Candida orthopsilosis clinical isolate bloodstream form assessed as time required for 90% reduction in fungal growth at 4 mg/L by time-kill assay; assay type: functional
Candida orthopsilosis [35] = assay: Antifungal activity against Candida orthopsilosis clinical isolate bloodstream form assessed as time required for 90% reduction in fungal growth at 16 mg/L by time-kill assay; assay type: functional
Candida orthopsilosis [36] = assay: Antifungal activity against Candida orthopsilosis clinical isolate bloodstream form assessed as time required for 90% reduction in fungal growth at 32 mg/L by time-kill assay; assay type: functional
Candida parapsilosis [37] = assay: Antifungal activity against Candida parapsilosis clinical isolate bloodstream form assessed as fungal count at 4 mg/L measured at 6 hrs by time-kill assay; assay type: functional
Candida orthopsilosis [38] = assay: Antifungal activity against Candida orthopsilosis clinical isolate bloodstream form assessed as induction of miniparadoxical effect at 32 mg/L after 48 hrs by time-kill assay; assay type: functional, organism-based
Candida parapsilosis [39] = assay: Antifungal activity against Candida parapsilosis clinical isolate bloodstream form assessed as induction of miniparadoxical effect at 32 mg/L after 48 hrs by time-kill assay; assay type: functional, organism-based
Candida orthopsilosis [40] = assay: Antifungal activity against Candida orthopsilosis clinical isolate bloodstream form assessed as induction of maximal fungal death at 1 mg/L after 48 hrs by time-kill assay; assay type: functional, organism-based

SMILES	Time (Candida orthopsilosis [1])	Time (Candida orthopsilosis [2])	Time (Candida metapsilosis [3])	Time (Candida metapsilosis [4])	Time (Candida metapsilosis [5])	Time (Candida metapsilosis [6])	Time (Candida metapsilosis [7])	Time (Candida metapsilosis [8])	Time (Candida metapsilosis [9])	Time (Candida metapsilosis [10])	Time (Candida parapsilosis [11])	Time (Candida parapsilosis [12])	Time (Candida parapsilosis [13])	Time (Candida parapsilosis [14])	Time (Candida parapsilosis [15])	Time (Candida parapsilosis [16])	Time (Candida parapsilosis [17])	Time (Candida parapsilosis [18])	Time (Candida parapsilosis [19])	Time (Candida parapsilosis [20])	further results
CCCCCOc1ccc(-c2cc(-c3ccc(C(=O)N[C@H]4C[C@@H](O)[C@@H](O)NC(=O)[C@@H]5[C@@H](O)[C@@H](C)CN5C(=O)[C@H]([C@H](O)CC(N)=O)NC(=O)[C@H]([C@H](O)[C@@H](O)c5ccc(O)c(OS(=O)(=O)O)c5)NC(=O)[C@@H]5C[C@@H](O)CN5C(=O)[C@H]([C@@H](C)O)NC4=O)cc3)no2)cc1 [MICAFUNGIN] (X1-[Orn(4R-OH,5R-OH)]T[Hyp][hTyr(3S-OH,4S-OH,3'-OSO3H)][Gln(3R-OH)][Pro(3S-OH,4S-Me)]; lactam 1-C)	>48 h	16.59 h	1.45 h	1.43 h	>48 h	10.15 h	4.76 h	>48 h	11.79 h	14.29 h	inactive	6.16 h	inactive	inactive	inactive	inactive	>48 h	>48 h	>48 h	>48 h	Time (Candida metapsilosis [21]): 30.46 h; MIC (Candida orthopsilosis [22]): 0.25 µg/mL (≈ 0.197 µM); MIC (Candida orthopsilosis [23]): 0.25 µg/mL (≈ 0.197 µM); MIC (Candida metapsilosis [24]): 0.12 µg/mL (≈ 0.0945 µM); MIC (Candida metapsilosis [25]): 0.25 µg/mL (≈ 0.197 µM); MIC (Candida parapsilosis [26]): 1 µg/mL (≈ 0.787 µM); log10cfu (Candida parapsilosis [27]): 1.22 /ml; inhibition (Candida parapsilosis [28]): inactive; Activity (Candida metapsilosis [29]): inactive; Activity (Candida orthopsilosis [30]): Active; Activity (Candida orthopsilosis [31]): Active; Time (Candida orthopsilosis [32]): 3.05 h; Time (Candida orthopsilosis [33]): 1.54 h; Time (Candida orthopsilosis [34]): 5.53 h; Time (Candida orthopsilosis [35]): 4.59 h; Time (Candida orthopsilosis [36]): 5.11 h
CCCCCOc1ccc(-c2ccc(-c3ccc(C(=O)N[C@H]4C[C@@H](O)[C@@H](O)NC(=O)[C@@H]5[C@@H](O)[C@@H](C)CN5C(=O)[C@H]([C@@H](C)O)NC(=O)[C@H]([C@H](O)[C@@H](O)c5ccc(O)cc5)NC(=O)[C@@H]5C[C@@H](O)CN5C(=O)[C@H]([C@@H](C)O)NC4=O)cc3)cc2)cc1 [ANIDULAFUNGIN] ({pTerphenylCO(4''-OnC5H11)}-[Orn(4R-OH,5R-OH)]T[Hyp][hTyr(3S-OH,4S-OH)]T[Pro(3S-OH,4S-Me)]; lactam 1-C)	>48 h	27.25 h	1.51 h	1.41 h	25.71 h	5.22 h	4.69 h	51.41 h	15.89 h	14.06 h	inactive	4.2 h	inactive	inactive	inactive	inactive	>48 h	>48 h	27.89 h	41.84 h	Time (Candida metapsilosis [21]): 15.67 h; MIC (Candida orthopsilosis [22]): 0.25 µg/mL (≈ 0.219 µM); MIC (Candida orthopsilosis [23]): 0.5 µg/mL (≈ 0.438 µM); MIC (Candida metapsilosis [24]): 0.06 µg/mL (≈ 0.0526 µM); MIC (Candida metapsilosis [25]): 0.03 µg/mL (≈ 0.0263 µM); MIC (Candida parapsilosis [26]): 1 µg/mL (≈ 0.877 µM); log10cfu (Candida parapsilosis [37]): 1.48 /ml; Activity (Candida orthopsilosis [38]): Active; Activity (Candida parapsilosis [39]): Active; inhibition (Candida parapsilosis [28]): inactive; Activity (Candida metapsilosis [29]): inactive; Activity (Candida orthopsilosis [30]): Active; Activity (Candida orthopsilosis [40]): Active; Time (Candida orthopsilosis [32]): 6.36 h; Time (Candida orthopsilosis [33]): 1.48 h; Time (Candida orthopsilosis [34]): 9.08 h; Time (Candida orthopsilosis [35]): 6.24 h; Time (Candida orthopsilosis [36]): 4.91 h
